Target: T1, trypsin (Bos taurus, UniProt P00760)
T1 construct: gene PRSS1
T1 sequence (P00760 24-246): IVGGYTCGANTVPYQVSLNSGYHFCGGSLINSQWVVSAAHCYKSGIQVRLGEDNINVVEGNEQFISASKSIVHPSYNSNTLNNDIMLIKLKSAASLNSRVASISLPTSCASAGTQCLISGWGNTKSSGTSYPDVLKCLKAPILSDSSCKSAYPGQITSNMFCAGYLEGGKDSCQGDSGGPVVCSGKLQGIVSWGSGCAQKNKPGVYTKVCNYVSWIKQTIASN
Experiment: EnzChek Protease Assay measuring trypsin activity (trypsin inhibition)
Format: biochemical
Conditions: for Trypsin activity (RFU): control (trypsin only) 1446 RFU; for Normalised activity: control (trypsin only) = 1.0
Excerpt: Hair growth follows a cycle of activity: anagen (growth phase), catagen (transitional/regression phase), telogen (dormant) followed by renewal of anagen. The telogen phase lasts approximately 3 months. […] The major biochemical activity at this stage is one of proteolysis whereby the proteins anchoring the hair fibre to the structure of the follicle are degraded (Paus & Krejic-Papa J Dermatol Sci 1994 Vol. 7, pp. 202-209; Krejic-Papa et al J Invest Derm Vol. 106, p 557). These enzymes are of the serine protease family of proteases.
Trypsin is a serine protease.
The following experiment uses trypsin as a model for the serine proteases involved in the process of hair fall (exogen). Successful inhibition the activity of the serine proteases such as trypsin is thought to delay the onset of exogen and decrease the amount of hair fall.
The EnzChek Protease Assay (E6639, Molecular Probes) was used to measure trypsin activity.

With `CC(C)(C)C(=O)C(Oc1ccc(Cl)cc1)n1ccnc1` (centres unmarked) [Climbazole] the “Trypsin activity (RFU)” value (Climbazole 0.0225%) was 1656 RFU, the Normalised activity (Climbazole 0.0225%) was 1.15 and the “Trypsin activity (RFU)” value (Climbazole 0.045%) was 1553 RFU. For the same compound, the Normalised activity (Climbazole 0.045%) was 1.07 and the “effect on trypsin activity” value (summary of the tables of Examples 1-6) was “no effect (or perhaps a positive effect)”.

From patent US8506942B2, “Hair care composition” (Conopco, Inc., priority 2007, dated 2013)
